From patent US20250313556A1, “CERTAIN CHEMICAL ENTITIES, COMPOSITIONS, AND METHODS” (MRJA THERAPEUTICS, INC., priority 2022, published 2025)
pIC50: −log10 of the molar value.

Target: c-KIT (Homo sapiens, UniProt P10721)
Test: c-KIT ADP-Glo biochemical assay
Conditions: class ranges
Method: The inhibitory activity against c-KIT was measured using ADP-Glo assay. The percent (%) inhibition at each concentration of compound is calculated based on and relative to the luminescence signal in the Max and Min control wells contained within each assay plate. The Max control wells contain enzyme and substrate as 0% inhibition, and the Min control wells only contain substrate without enzyme as 100% inhibition. The concentrations and % inhibition values for tested compounds are plotted and the concentration of compound required for 50% inhibition (IC50) is determined with a four-parameter logistic dose response equation. The ability of the compounds in Table 1 to inhibit c-KIT was determined.

c-KIT, sequence (P10721 26-976): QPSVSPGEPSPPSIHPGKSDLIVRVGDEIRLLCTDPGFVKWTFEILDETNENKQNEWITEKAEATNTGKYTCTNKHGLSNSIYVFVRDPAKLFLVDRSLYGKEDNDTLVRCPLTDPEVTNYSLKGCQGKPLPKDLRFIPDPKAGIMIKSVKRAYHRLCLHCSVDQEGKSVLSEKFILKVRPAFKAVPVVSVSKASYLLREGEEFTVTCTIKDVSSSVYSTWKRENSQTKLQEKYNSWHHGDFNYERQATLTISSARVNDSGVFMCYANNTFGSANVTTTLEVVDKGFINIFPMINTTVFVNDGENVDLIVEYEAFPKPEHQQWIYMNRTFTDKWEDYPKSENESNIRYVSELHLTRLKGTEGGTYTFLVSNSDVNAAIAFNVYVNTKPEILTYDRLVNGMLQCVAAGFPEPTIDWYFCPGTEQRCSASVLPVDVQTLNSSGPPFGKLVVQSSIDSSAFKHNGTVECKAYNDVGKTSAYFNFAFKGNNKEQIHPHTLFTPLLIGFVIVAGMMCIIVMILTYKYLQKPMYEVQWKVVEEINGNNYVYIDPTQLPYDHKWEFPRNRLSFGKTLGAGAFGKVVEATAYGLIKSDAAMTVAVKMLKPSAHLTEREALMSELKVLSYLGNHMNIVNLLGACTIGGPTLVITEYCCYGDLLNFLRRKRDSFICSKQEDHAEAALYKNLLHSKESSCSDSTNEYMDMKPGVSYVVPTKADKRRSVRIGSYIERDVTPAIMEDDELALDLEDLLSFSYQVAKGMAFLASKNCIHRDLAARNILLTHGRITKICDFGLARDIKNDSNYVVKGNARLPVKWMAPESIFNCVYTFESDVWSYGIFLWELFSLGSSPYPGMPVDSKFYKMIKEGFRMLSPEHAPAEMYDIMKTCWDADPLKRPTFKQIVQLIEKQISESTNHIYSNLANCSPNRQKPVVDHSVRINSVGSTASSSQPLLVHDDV

Compound | pIC50
COC(=O)N1CC(c2nc(-c3cc(F)c(C)c(NC(=O)c4cnc5ccc(C)cn45)c3)no2)C1 [Compound C021, methyl 3-(3-(3-fluoro-4-methyl-5-(6-methylimidazo[1,2-a]pyridine-3-carboxamido)phenyl)-1,2,4-oxadiazol-5-yl)azetidine-1-carboxylate] | 6.00 to 7.00
Cc1c(F)cc(-c2noc([C@H]3C[C@@H]3F)n2)cc1NC(=O)c1cnc2ccc(N3CCOCC3)cn12 (racemic) [Compound C008, N-(3-fluoro-5-(5-((1R,2S)-2-fluorocyclopropyl)-1,2,4-oxadiazol-3-yl)-2-methylphenyl)-6-morpholinoimidazo[1,2-a]pyridine-3-carboxamide] | 4.70 to 6.00
Cc1c(F)cc(-c2noc(C3CC(F)(F)C3)n2)cc1NC(=O)c1cnc2cc(N3CCN(C)CC3)ccn12 [Compound C011, N-(5-(5-(3,3-difluorocyclobutyl)-1,2,4-oxadiazol-3-yl)-3-fluoro-2-methylphenyl)-7-(4-methylpiperazin-1-yl)imidazo[1,2-a]pyridine-3-carboxamide] | 6.00 to 7.00
Cc1c(F)cc(-c2noc([C@H]3C[C@@H]3F)n2)cc1NC(=O)c1cnc2cc(N3CCNCC3)ccn12 (racemic) [Compound C022, N-(3-fluoro-5-(5-((1R,2S)-2-fluorocyclopropyl)-1,2,4-oxadiazol-3-yl)-2-methylphenyl)-7-(piperazin-1-yl)imidazo[1,2-a]pyridine-3-carboxamide] | 4.70 to 6.00
Cc1c(F)cc(-c2noc(C3CC(F)(F)C3)n2)cc1NC(=O)c1cnc2ccccn12 [Compound C001, N-(5-(5-(3,3-difluorocyclobutyl)-1,2,4-oxadiazol-3-yl)-3-fluoro-2-methylphenyl)imidazo[1,2-a]pyridine-3-carboxamide] | 4.70 to 6.00
Cc1c(F)cc(-c2noc([C@H]3C[C@H]3F)n2)cc1NC(=O)c1cnn2ccccc12 (racemic) [Compound C005] | 6.00 to 7.00
COC(=O)N1CC(c2nc(-c3cc(F)c(C)c(NC(=O)c4cnn5ccccc45)c3)no2)C1 [Compound C006, methyl 3-(3-(3-fluoro-4-methyl-5-(pyrazolo[1,5-a]pyridine-3-carboxamido)phenyl)-1,2,4-oxadiazol-5-yl)azetidine-1-carboxylate] | 6.00 to 7.00
Cc1c(F)cc(-c2noc([C@H]3C[C@@H]3F)n2)cc1NC(=O)c1cnc2ccc(N3CCNCC3)cn12 (racemic) [Compound C026, N-(3-fluoro-5-(5-((1R,2S)-2-fluorocyclopropyl)-1,2,4-oxadiazol-3-yl)-2-methylphenyl)-6-(piperazin-1-yl)imidazo[1,2-a]pyridine-3-carboxamide] | 6.00 to 7.00
COC(=O)N1CC(c2nc(-c3cc(F)c(C)c(NC(=O)c4cnc5ccc(N6CCOCC6)cn45)c3)no2)C1 [Compound C009, methyl 3-(3-(3-fluoro-4-methyl-5-(6-morpholinoimidazo[1,2-a]pyridine-3-carboxamido)phenyl)-1,2,4-oxadiazol-5-yl)azetidine-1-carboxylate] | 6.00 to 7.00
COC(=O)N1CC(c2nc(-c3cc(F)c(C)c(NC(=O)c4cnc5ccccn45)c3)no2)C1 [Compound C003, methyl 3-(3-(3-fluoro-5-(imidazo[1,2-a]pyridine-3-carboxamido)-4-methylphenyl)-1,2,4-oxadiazol-5-yl)azetidine-1-carboxylate] | ≥ 7.00
Cc1c(F)cc(-c2noc(C3CC(F)(F)C3)n2)cc1NC(=O)c1cnc2cc(N3CCOCC3)ccn12 [Compound C013, N-(5-(5-(3,3-difluorocyclobutyl)-1,2,4-oxadiazol-3-yl)-3-fluoro-2-methylphenyl)-7-morpholinoimidazo[1,2-a]pyridine-3-carboxamide] | 6.00 to 7.00
COC(=O)N1CC(c2nc(-c3cc(F)c(C)c(NC(=O)c4cnc5cc(N6CCOCC6)ccn45)c3)no2)C1 [Compound C015, methyl 3-(3-(3-fluoro-4-methyl-5-(7-morpholinoimidazo[1,2-a]pyridine-3-carboxamido)phenyl)-1,2,4-oxadiazol-5-yl)azetidine-1-carboxylate] | ≥ 7.00
COC(=O)N1CC(c2nc(-c3cc(F)c(C)c(NC(=O)c4cnc5ccc(F)cn45)c3)no2)C1 [Compound C019, methyl 3-(3-(3-fluoro-5-(6-fluoroimidazo[1,2-a]pyridine-3-carboxamido)-4-methylphenyl)-1,2,4-oxadiazol-5-yl)azetidine-1-carboxylate] | 6.00 to 7.00
Cc1c(F)cc(-c2noc(C3CC(F)(F)C3)n2)cc1NC(=O)c1cnc2ccc(N3CCOCC3)cn12 [Compound C007, N-(5-(5-(3,3-difluorocyclobutyl)-1,2,4-oxadiazol-3-yl)-3-fluoro-2-methylphenyl)-6-morpholinoimidazo[1,2-a]pyridine-3-carboxamide] | 6.00 to 7.00

The remaining lines, values ahead:

pIC50 | Compound
6.00 to 7.00 | COC(=O)N1CC(c2noc(-c3cc(F)c(C)c(NC(=O)c4cnc5ccccn45)c3)n2)C1 [Compound C037, methyl 3-(5-(3-fluoro-5-(imidazo[1,2-a]pyridine-3-carboxamido)-4-methylphenyl)-1,2,4-oxadiazol-3-yl)azetidine-1-carboxylate]
4.70 to 6.00 | COC(=O)N1CC(c2cnc(-c3cc(F)c(C)c(NC(=O)c4cnc5ccccn45)c3)o2)C1 [Compound C051, methyl 3-(2-(3-fluoro-5-(imidazo[1,2-a]pyridine-3-carboxamido)-4-methylphenyl)oxazol-5-yl)azetidine-1-carboxylate]
6.00 to 7.00 | COC(=O)N1CC(c2nc(-c3cc(F)c(C)c(NC(=O)c4cnc5ccc(N6CCN(C)CC6)cn45)c3)no2)C1 [Compound C028, methyl 3-(3-(3-fluoro-4-methyl-5-(6-(4-methylpiperazin-1-yl)imidazo[1,2-a]pyridine-3-carboxamido)phenyl)-1,2,4-oxadiazol-5-yl)azetidine-1-carboxylate]
6.00 to 7.00 | COC(=O)N1CCC[C@@H](c2nc(-c3cc(F)c(C)c(NC(=O)c4cnc5ccccn45)c3F)no2)C1 [Compound C054, methyl (R)-3-(3-(2,5-difluoro-3-(imidazo[1,2-a]pyridine-3-carboxamido)-4-methylphenyl)-1,2,4-oxadiazol-5-yl)piperidine-1-carboxylate]
≥ 7.00 | COC(=O)N1CC(c2nc(-c3cc(F)c(C)c(NC(=O)c4cnc5cc(C(N)=O)ccn45)c3)no2)C1 [Compound C043, methyl 3-(3-(3-(7-carbamoylimidazo[1,2-a]pyridine-3-carboxamido)-5-fluoro-4-methylphenyl)-1,2,4-oxadiazol-5-yl)azetidine-1-carboxylate]
4.70 to 6.00 | CNC(=O)N1CC(c2nc(-c3cc(F)c(C)c(NC(=O)c4cnc5ccccn45)c3)no2)C1 [Compound C032, N-(3-fluoro-2-methyl-5-(5-(1-(methylcarbamoyl)azetidin-3-yl)-1,2,4-oxadiazol-3-yl)phenyl)imidazo[1,2-a]pyridine-3-carboxamide]
6.00 to 7.00 | COC(=O)N1CC(c2nc(-c3cc(F)c(C)c(NC(=O)c4cnc5ccc(OC)cn45)c3)no2)C1 [Compound C027, methyl 3-(3-(3-fluoro-5-(6-methoxyimidazo[1,2-a]pyridine-3-carboxamido)-4-methylphenyl)-1,2,4-oxadiazol-5-yl)azetidine-1-carboxylate]
4.70 to 6.00 | Cc1c(F)cc(-c2noc(C3CN(C(=O)OC4CC4)C3)n2)cc1NC(=O)c1cnc2ccccn12 [Compound C031, cyclopropyl 3-(3-(3-fluoro-5-(imidazo[1,2-a]pyridine-3-carboxamido)-4-methylphenyl)-1,2,4-oxadiazol-5-yl)azetidine-1-carboxylate]
6.00 to 7.00 | Cc1c(F)cc(-c2noc(C3CC(F)(F)C3)n2)cc1NC(=O)c1cnc2ccc(N3CCN(C)CC3)cn12 [Compound C033, N-(5-(5-(3,3-difluorocyclobutyl)-1,2,4-oxadiazol-3-yl)-3-fluoro-2-methylphenyl)-6-(4-methylpiperazin-1-yl)imidazo[1,2-a]pyridine-3-carboxamide]
6.00 to 7.00 | Cc1c(F)cc(-c2noc([C@H]3C[C@@H]3F)n2)cc1NC(=O)c1cnc2ccc(N3CCN(C)CC3)cn12 (racemic) [Compound C034, N-(3-fluoro-5-(5-((1R,2S)-2-fluorocyclopropyl)-1,2,4-oxadiazol-3-yl)-2-methylphenyl)-6-(4-methylpiperazin-1-yl)imidazo[1,2-a]pyridine-3-carboxamide]
6.00 to 7.00 | COC(=O)N1CC(c2coc(-c3cc(F)c(C)c(NC(=O)c4cnc5ccccn45)c3)n2)C1 [Compound C047, methyl 3-(2-(3-fluoro-5-(imidazo[1,2-a]pyridine-3-carboxamido)-4-methylphenyl)oxazol-4-yl)azetidine-1-carboxylate]
6.00 to 7.00 | COC(=O)N1CC(c2nnc(-c3cc(F)c(C)c(NC(=O)c4cnc5ccccn45)c3)[nH]2)C1 [Compound C048, methyl 3-(5-(3-fluoro-5-(imidazo[1,2-a]pyridine-3-carboxamido)-4-methylphenyl)-4H-1,2,4-triazol-3-yl)azetidine-1-carboxylate]

Same assay, conditions: comparison of prior art compounds (WO 2013/033167) with example 3 (C003)

pIC50 | Compound
6.77 | COC(=O)N1CC(c2nc(-c3ccc(C)c(NC(=O)c4cnc5ccccn45)c3)no2)C1 [methyl 3-(3-(3-(imidazo[1,2-a]pyridine-3-carboxamido)-4-methylphenyl)-1,2,4-oxadiazol-5-yl)azetidine-1-carboxylate, reference compound]
5.31 | COC(=O)N1CC(c2nc(-c3cc(NC(=O)c4cnc5ccccn45)c(C)cc3F)no2)C1 [methyl 3-(3-(2-fluoro-5-(imidazo[1,2-a]pyridine-3-carboxamido)-4-methylphenyl)-1,2,4-oxadiazol-5-yl)azetidine-1-carboxylate, reference compound]
7.37 | COC(=O)N1CC(c2nc(-c3cc(F)c(C)c(NC(=O)c4cnc5ccccn45)c3)no2)C1 [Compound C003, methyl 3-(3-(3-fluoro-5-(imidazo[1,2-a]pyridine-3-carboxamido)-4-methylphenyl)-1,2,4-oxadiazol-5-yl)azetidine-1-carboxylate]
